# Results from patent US20260265238A1, “COMPOUNDS AND PHARMACEUTICAL COMPOSITIONS THAT DEGRADE SWI/SNF-RELATED MATRIX-ASSOCIATED ACTIN-DEPENDENT REGULATOR OF CHROMATIN SUBFAMILY A” (Plexium, Inc., priority 2023, published 2026).
# Tests used:
# [1] = target: T1, SMARCA4-HiBiT HeLa cells (protein which is expressed from the SMARCA4 gene) (Homo sapiens, UniProt P51532); experiment: SMARCA4 degradation assay (HiBiT-fusion HeLa cell line, 24 h, luminescence); format: cell-based
# T1 construct: protein which is expressed from the SMARCA2 and SMARCA4 genes; host or cells: HeLa (SMARCA4-HiBiT engineered line)
# T1 sequence (P51532 whole entry, the tested form may be a part): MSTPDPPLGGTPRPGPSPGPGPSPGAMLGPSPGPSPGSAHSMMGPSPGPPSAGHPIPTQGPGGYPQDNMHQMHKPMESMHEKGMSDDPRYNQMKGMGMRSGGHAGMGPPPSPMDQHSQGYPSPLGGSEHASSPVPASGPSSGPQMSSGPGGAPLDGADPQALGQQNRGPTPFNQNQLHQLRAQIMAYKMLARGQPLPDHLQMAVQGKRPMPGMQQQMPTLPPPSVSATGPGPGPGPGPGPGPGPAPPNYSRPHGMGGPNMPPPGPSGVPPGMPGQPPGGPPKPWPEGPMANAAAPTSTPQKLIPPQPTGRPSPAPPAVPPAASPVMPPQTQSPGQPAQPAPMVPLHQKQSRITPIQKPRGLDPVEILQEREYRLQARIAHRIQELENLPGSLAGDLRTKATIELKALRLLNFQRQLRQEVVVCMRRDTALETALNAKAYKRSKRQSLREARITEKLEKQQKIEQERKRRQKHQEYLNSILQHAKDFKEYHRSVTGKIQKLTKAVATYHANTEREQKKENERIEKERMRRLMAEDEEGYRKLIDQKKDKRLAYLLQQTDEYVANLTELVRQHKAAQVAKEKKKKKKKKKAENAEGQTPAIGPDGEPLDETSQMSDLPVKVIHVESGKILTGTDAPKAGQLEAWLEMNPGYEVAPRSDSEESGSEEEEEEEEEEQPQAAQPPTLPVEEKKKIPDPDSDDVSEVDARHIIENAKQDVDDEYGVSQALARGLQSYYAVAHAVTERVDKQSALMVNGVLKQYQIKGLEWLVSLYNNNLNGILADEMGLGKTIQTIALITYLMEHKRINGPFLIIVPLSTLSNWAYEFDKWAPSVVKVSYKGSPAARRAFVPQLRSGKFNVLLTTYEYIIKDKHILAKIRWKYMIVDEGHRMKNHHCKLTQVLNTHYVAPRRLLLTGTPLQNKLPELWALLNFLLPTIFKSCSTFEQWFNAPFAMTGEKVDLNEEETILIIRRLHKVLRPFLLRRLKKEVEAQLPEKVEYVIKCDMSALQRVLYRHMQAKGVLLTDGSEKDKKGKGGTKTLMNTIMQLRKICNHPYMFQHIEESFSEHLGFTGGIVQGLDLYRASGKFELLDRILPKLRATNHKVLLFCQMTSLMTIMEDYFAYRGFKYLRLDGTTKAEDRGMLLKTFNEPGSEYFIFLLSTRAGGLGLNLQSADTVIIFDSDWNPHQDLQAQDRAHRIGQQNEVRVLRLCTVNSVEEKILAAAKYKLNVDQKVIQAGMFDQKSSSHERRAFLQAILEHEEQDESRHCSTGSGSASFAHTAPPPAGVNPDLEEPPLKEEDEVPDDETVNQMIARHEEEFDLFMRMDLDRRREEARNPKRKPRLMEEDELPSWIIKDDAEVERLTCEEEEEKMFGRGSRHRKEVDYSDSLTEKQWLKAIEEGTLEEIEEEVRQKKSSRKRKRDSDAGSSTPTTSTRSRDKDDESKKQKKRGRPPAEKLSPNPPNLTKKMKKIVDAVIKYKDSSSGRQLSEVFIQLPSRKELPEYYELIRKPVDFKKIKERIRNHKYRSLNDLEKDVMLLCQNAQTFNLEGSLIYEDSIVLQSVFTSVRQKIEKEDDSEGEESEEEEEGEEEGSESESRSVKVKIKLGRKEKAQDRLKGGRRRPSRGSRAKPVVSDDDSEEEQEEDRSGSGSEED
# Summary of the method: (§1)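 SMARCA2- or SMARCA4-HiBiT HeLa cells seeded overnight at 37° C, then given compound as a 10-point dilution (typically 10 μM to 300 pM) for 24 h at 37° C. Protein level read by HiBiT lytic detection luminescence; DC50 from dose-response curves; degradation also scored at 1 μM.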
# [2] = target: T2, SMARCA2-HiBiT HeLa cells (protein which is expressed from the SMARCA2 gene) (Homo sapiens, UniProt P51531); experiment: SMARCA2 degradation assay (HiBiT-fusion HeLa cell line, 24 h, luminescence); format: cell-based
# T2 construct: protein which is expressed from the SMARCA2 and SMARCA4 genes; host or cells: HeLa (SMARCA2-HiBiT engineered line)
# T2 sequence (P51531 whole entry, the tested form may be a part): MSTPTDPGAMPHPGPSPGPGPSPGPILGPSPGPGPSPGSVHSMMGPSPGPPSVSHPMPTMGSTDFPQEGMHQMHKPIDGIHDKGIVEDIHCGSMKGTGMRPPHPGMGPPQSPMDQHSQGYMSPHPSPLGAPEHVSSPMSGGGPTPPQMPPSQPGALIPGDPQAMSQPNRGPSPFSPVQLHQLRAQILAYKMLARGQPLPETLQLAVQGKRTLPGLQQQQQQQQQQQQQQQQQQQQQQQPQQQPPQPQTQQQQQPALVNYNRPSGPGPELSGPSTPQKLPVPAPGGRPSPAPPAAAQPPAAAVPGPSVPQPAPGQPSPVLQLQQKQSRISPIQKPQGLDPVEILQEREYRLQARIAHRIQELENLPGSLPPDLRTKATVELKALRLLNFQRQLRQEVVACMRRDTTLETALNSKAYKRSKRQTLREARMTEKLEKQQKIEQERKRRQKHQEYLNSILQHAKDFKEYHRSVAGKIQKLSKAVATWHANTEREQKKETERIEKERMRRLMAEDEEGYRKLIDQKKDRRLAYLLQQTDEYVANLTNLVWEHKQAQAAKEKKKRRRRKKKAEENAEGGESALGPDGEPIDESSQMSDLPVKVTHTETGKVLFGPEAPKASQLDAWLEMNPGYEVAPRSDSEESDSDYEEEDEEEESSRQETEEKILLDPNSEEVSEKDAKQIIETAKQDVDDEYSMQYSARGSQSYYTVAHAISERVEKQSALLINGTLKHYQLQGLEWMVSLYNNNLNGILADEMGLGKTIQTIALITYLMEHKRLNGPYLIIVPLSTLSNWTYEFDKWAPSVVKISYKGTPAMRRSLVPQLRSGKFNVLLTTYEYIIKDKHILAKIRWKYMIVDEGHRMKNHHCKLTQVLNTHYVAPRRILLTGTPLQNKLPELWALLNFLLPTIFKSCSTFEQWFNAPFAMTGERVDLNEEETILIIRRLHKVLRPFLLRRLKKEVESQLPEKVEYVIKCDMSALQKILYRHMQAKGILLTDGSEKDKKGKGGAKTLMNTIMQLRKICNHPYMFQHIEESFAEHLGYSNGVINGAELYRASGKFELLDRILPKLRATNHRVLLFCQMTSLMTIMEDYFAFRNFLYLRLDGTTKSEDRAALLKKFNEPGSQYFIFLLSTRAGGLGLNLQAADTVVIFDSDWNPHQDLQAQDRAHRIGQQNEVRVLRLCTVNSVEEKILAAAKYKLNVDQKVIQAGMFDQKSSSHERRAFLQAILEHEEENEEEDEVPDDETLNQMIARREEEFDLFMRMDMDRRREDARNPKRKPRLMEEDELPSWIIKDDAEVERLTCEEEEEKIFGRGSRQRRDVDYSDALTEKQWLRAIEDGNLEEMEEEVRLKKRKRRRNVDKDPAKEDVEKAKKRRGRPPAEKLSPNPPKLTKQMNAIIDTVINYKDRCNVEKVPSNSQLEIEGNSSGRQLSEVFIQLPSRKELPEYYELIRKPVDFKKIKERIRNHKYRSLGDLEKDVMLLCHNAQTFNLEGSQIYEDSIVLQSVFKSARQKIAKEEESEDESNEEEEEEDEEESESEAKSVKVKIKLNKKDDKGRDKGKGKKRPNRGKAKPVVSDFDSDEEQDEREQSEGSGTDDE
# Summary of the method: as §1
Structure (SMILES),DC50 [1],inhibition at 1 µM ([1]; @ 1 μM),DC50 [2],SMARCA2 % Degradation @ 1 μM ([2]; @ 1 μM),inhibition at 1 µM ([1]; 1 μM),SMARCA2 % Degradation @ 1 μM ([2]; 1 μM)
"Nc1nnc(-c2ccccc2O)cc1N1CCCN(c2ccnc(C#CCN3CC(=O)NC(=O)C3)n2)CC1 [Compound P-364, 4-[3-(4-{4-[3-amino-6-(o-hydroxyphenyl)-4-pyridazinyl]-1,4-diazepan-1-yl}-2-pyrimidinyl)-2-propynyl]-2,6-piperazinedione]",500 to 5000 nM,< 30%,500 to 5000 nM,++ (++=30-70%),–,–
"Nc1nnc(-c2ccccc2O)cc1-c1cnn(C2CN(c3ccnc(C#CCn4ccnc4)n3)C2)c1 [Compound P-212, o-{6-amino-5-[1-(1-{2-[3-(1-imidazolyl)-1-propynyl]-4-pyrimidinyl}-3-azetidinyl)-4-pyrazolyl]-3-pyridazinyl} phenol]",50 to 500 nM,30 to 70%,50 to 500 nM,++ (++=30-70%),–,–
"C[C@H]1CN(c2cc(-c3ccccc3O)nnc2N)[C@@H](C)CN1c1ccnc(C#CCNC(=O)c2cc3ncccn3n2)n1 [Compound P-343, N-[3-(4-{(2S,5S)-4-[3-amino-6-(0-hydroxyphenyl)-4-pyridaziny1]-2,5-dimethyl-1-piperazinyl}-2-pyrimidinyl)-2-propynyl]-1,4,7a-triaza-2-indenecarboxamide]",50 to 500 nM,30 to 70%,50 to 500 nM,++ (++=30-70%),–,–
"Nc1nnc(-c2ccccc2O)cc1N1CCCN(c2ccnc(C#CCN3CCn4nccc4C3)n2)CC1 [Compound P-146, 2-(6-amino-5-(4-(2-(3-(6,7-dihydropyrazolo[1,5-a]pyrazin-5(4H)-yl)prop-1-yn-1-yl)pyrimidin-4-yl)-1,4-diazepan-1-yl)pyridazin-3-yl)phenol]",50 to 500 nM,30 to 70%,50 to 500 nM,+++ (+++=>70%),–,–
"Nc1nnc(-c2ccccc2O)cc1N1CCC2(CCN(c3ccnc(C#CCNC(=O)c4cc5ncccn5n4)n3)CC2)CC1 [Compound P-42, N-(3-(4-(9-(3-amino-6-(2-hydroxyphenyl)pyridazin-4-yl)-3,9-diazaspiro[5.5]undecan-3-yl)pyrimidin-2-yl)prop-2-yn-1-yl)pyrazolo[1,5-a]pyrimidine-2-carboxamide]",50 to 500 nM,30 to 70%,50 to 500 nM,++ (++=30-70%),–,–
"Nc1nnc(-c2ccccc2O)cc1N1CCN(c2ccnc(C#CCNC(=O)c3cnc4ccccn34)n2)CC1 [Compound P-66, N-(3-(4-(4-(3-amino-6-(2-hydroxyphenyl)pyridazin-4-yl)piperazin-1-yl)pyrimidin-2-yl)prop-2-yn-1-yl)imidazo[1,2-a]pyridine-3-carboxamide]",50 to 500 nM,30 to 70%,50 to 500 nM,++ (++=30-70%),–,–
"C[C@@H]1CCN(c2cc(-c3ccccc3O)nnc2N)CCN1c1nc(C#CCN2C(=O)CC[C@@H]2C)ncc1F [Compound P-176, (S)-1-[3-(4-{(R)-4-[3-amino-6-(o-hydroxyphenyl)-4-pyridazinyl]-7-methyl-1,4-diazepan-1-yl}-5-fluoro-2-pyrimidinyl)-2-propynyl]-5-methyl-2-pyrrolidinone]",50 to 500 nM,30 to 70%,50 to 500 nM,++ (++=30-70%),–,–
"Nc1nnc(-c2ccccc2O)cc1N1CCN(c2ccnc(C#CCNC(=O)c3ccn(CC(F)(F)F)n3)n2)CC1 [Compound P-9, N-[3-(4-{4-[3-amino-6-(2-hydroxyphenyl)pyridazin-4-yl]piperazin-1-yl}pyrimidin-2-yl)prop-2-yn-1-yl]-1-(2,2,2-trifluoroethyl)-1H-pyrazole-3-carboxamidc]",< 50 nM,30 to 70%,50 to 500 nM,++ (++=30-70%),–,–
"Nc1nnc(-c2ccccc2O)cc1OC1CC2CN(c3ccnc(C#CCn4ccnc4)n3)CC2C1 (stereo not drawn) [Compound P-219, o-[6-amino-5-(3-{2-[3-(1-imidazolyl)-1-propynyl]-4-pyrimidinyl}-3-azabicyclo[3.3.0]oct-7-yloxy)-3-pyridazinyl]phenol]",50 to 500 nM,> 70%,50 to 500 nM,+++ (+++=>70%),–,–
"CN(C)CC#Cc1nccc(N2CC(n3cc(-c4cc(-c5ccccc5O)nnc4N)cn3)C2)n1 [Compound P-216, o-{6-amino-5-[1-(1-{2-[3-(dimethylamino)-1-propynyl]-4-pyrimidinyl}-3-azetidinyl)-4-pyrazolyl]-3-pyridazinyl} phenol]",< 50 nM,30 to 70%,< 50 nM,++ (++=30-70%),–,–
C[C@@H]1CCN(c2cc(-c3ccccc3O)nnc2N)CCN1c1ccnc(/C=C/CN(C)CCF)n1 [Compound P-164],< 50 nM,30 to 70%,< 50 nM,+++ (+++=>70%),–,–
"C[C@@H]1CCN(c2cc(-c3ccccc3O)nnc2N)CCN1c1cc(C#CCN(C)C)ncc1F [Compound P-419, 0-{5-[(R)-4-{2-[3-(dimethylamino)-1-propynyl]-5-fluoro-4-pyridy1}-5-methyl-1,4-diazepan-1-yl]-6-amino-3-pyridazinyl}phenol]",50 to 500 nM,–,50 to 500 nM,–,< 30%,+ (+=<30%)
"COCC1CN(CC#Cc2nccc(N3CCN(c4cc(-c5ccccc5O)nnc4N)CC[C@H]3C)n2)CCO1 (stereo partly drawn) [Compound P-161, o-{5-[(R)-4-(2-{3-[2-(methoxymethyl)-4-morpholinyl]-1-propynyl}-4-pyrimidinyl)-5-methyl-1,4-diazepan-1-yl]-6-amino-3-pyridazinyl}phenol]",50 to 500 nM,30 to 70%,50 to 500 nM,++ (++=30-70%),–,–
"C[C@@H]1CCN(c2cc(-c3ccccc3O)nnc2N)CCN1c1ccnc(C#CCNC(=O)OC2CC/C=C\CCC2)n1 (stereo partly drawn) [Compound P-268, 4-[(R)-4-(2-{3-[(Z)-4-cycloocten-1-yloxycarbonylamino]-1-propynyl}-4-pyrimidinyl)-5-methyl-1,4-diazepan-1-yl]-6-(o-hydroxyphenyl)-3-pyridazinamine]",50 to 500 nM,30 to 70%,50 to 500 nM,+++ (+++=>70%),–,–
"C[C@@H]1CCN(c2cc(-c3ccccc3O)nnc2N)CCN1c1ccnc(C#CCN2CC3CCC2CO3)n1 (stereo partly drawn) [Compound P-178, o-{5-[(R)-5-methyl-4-(2-{3-(2-oxa-5-azabicyclo[2.2.2]oct-5-yl)-1-propynyl}-4-pyrimidinyl)-1,4-diazepan-1-yl]-6-amino-3-pyridazinyl}phenol]",50 to 500 nM,30 to 70%,50 to 500 nM,+++ (+++=>70%),–,–
C[C@@H]1CCN(c2cc(-c3ccccc3O)nnc2N)CCN1c1ccc(C(F)(F)F)c(C#CCN2CCCC2)n1 [Compound P-394],500 to 5000 nM,–,500 to 5000 nM,–,–,+ (+=<30%)
"C[C@@H]1CCN(c2cc(-c3ccccc3O)nnc2N)CCN1c1nc(C#CCN2CCCC2=O)ncc1F [Compound P-203, 1-[3-(4-{(R)-4-[3-amino-6-(o-hydroxyphenyl)-4-pyridazinyl]-7-methyl-1,4-diazepan-1-y1}-5-fluoro-2-pyrimidinyl)-2-propynyl]-2-pyrrolidinone]",50 to 500 nM,30 to 70%,50 to 500 nM,++ (++=30-70%),–,–
"C[C@H]1COCCN1CC#Cc1nccc(N2CCCN(c3cc(-c4ccccc4O)nnc3N)CC2)n1 [Compound P-316, 0-{5-[4-(2-{3-[(S)-3-methyl-4-morpholinyl]-1-propynyl}-4-pyrimidinyl)-1,4-diazepan-1-yl]-6-amino-3-pyridazinyl}phenol]",500 to 5000 nM,< 30%,50 to 500 nM,++ (++=30-70%),–,–
"CN(C)CC#Cc1cc(OC2CCN(c3cc(-c4ccccc4O)nnc3N)CC2)ccn1 [Compound P-384, 0-[6-amino-5-(4-{2-[3-(dimethylamino)-1-propynyl]-4-pyridyloxy}-1-piperidyl)-3-pyridazinyl]phenol]",50 to 500 nM,–,50 to 500 nM,–,< 30%,++ (++=30-70%)
"C[C@@H]1CCN(c2cc(-c3ccccc3O)nnc2N)CCN1c1ccnc(C#CCN2CC(F)(F)C2)n1 [Compound P-252, o-{5-[(R)-4-{2-[3-(3,3-difluoro-1-azetidinyl)-1-propynyl]-4-pyrimidinyl}-5-methyl-1,4-diazepan-1-yl]-6-amino-3-pyridazinyl}phenol]",50 to 500 nM,30 to 70%,50 to 500 nM,++ (++=30-70%),–,–
"C[C@H]1CN(c2ccnc(C#CCNC(=O)c3cc4ncccn4n3)n2)CCN1c1cc(-c2ccccc2O)nnc1N [Compound P-48, (S)-N-(3-(4-(4-(3-amino-6-(2-hydroxyphenyl)pyridazin-4-yl)-3-methylpiperazin-1-yl)pyrimidin-2-yl)prop-2-yn-1-yl)pyrazolo[1,5-a]pyrimidine-2-carboxamide]",50 to 500 nM,30 to 70%,50 to 500 nM,++ (++=30-70%),–,–
"C/C=C/c1nccc(N2CCN(c3cc(-c4ccccc4O)nnc3N)CC[C@H]2C)n1 [Compound P-169, o-(5-{(R)-5-methyl-4-[2-(1-propenyl)-4-pyrimidinyl]-1,4-diazepan-1-yl}-6-amino-3-pyridazinyl)phenol]",50 to 500 nM,> 70%,50 to 500 nM,+++ (+++=>70%),–,–
